Laboratory results taken from patent US7166310B2, “Stable extract from Hypericum perforatum L., method for the production thereof and its use as a topical medicament” (Dr. Willmar Schwabe GmbH & Co., priority 2000, dated 2007).
In brackets after ≈: the same amount, converted by molar mass. Like-named read-outs stand apart in the source and are kept apart here.

Experiments:
[1] = tested on: myelo-peroxidase (MPO), neutrophile granulocyte accumulation; test: Oleum Crotonis-ear-oedema model, myelo-peroxidase in ear homogenates; format: in vivo; conditions: 250 μg topically on the ear, mice, 6 hours
Experimental: (§1) The anti-phlogistic effects of hypericum extract according to the invention, also those of isolated ingredients, were tested in the Oleum Crotonis-ear-oedema model on male NRMI mice. After inducing a narcosis by the intra-peritonal injection of 60 mg/kg sodium-pento-barbital, the test substances were applied to the right ear in 10 μl acetone, whereas the left ear was treated with 10 μl acetone alone, as a control. 30 mins later, a local inflammation was triggered at the left ear by applying 50 μg Oleum Crotonis in 10 μl acetone. After 6 hours, the animals were sacrificed and inhibition of the inflammation reaction was quantified by weighing a sample of tissue drawn from both ears, using the following formula: [1−(GT/GL]×100; in the case of GT or GL, this deals with the difference in weight between the right and left ears of animals that have been treated with the test substance (GT), or only with the solvent (GL).
Inhibition of neutrophile granulocyte accumulations in inflamed tissue was obtained by determining myelo-peroxidase (MPO) in the ear homogenates. To this end, biopsy samples were recorded in 1 ml hexadecyl-trimethyl ammonium bromide (HTAB) buffers, homogenised with a glass homogeniser at 4° C. and then given ultrasound treatment for 10 seconds in a sonicator. After centrifuging at 4° C. with 3000 g for 10 mins, the supernatant was removed and retained for analysing at −70° C. Determining the MPO was performed in micro-titre dishes after adding H2O2 and the O-dianisidine-dihydrochloride indicator as a kinetic measure, over a period of 5 mins at 450 nm. Assessment was carried out against a standard curve with horseradish peroxidase, and was obtained as an mU enzyme activity per mg of tissue.
(§2) The results of the investigations after applying 250 μg of the test substance or 1000 μg of the extract according to the invention to the left ear in each case are summarised in the following table.

[2] = tested on: Oleum Crotonis-ear-oedema; test: Oleum Crotonis-ear-oedema model, ear weight; format: in vivo; conditions: 250 μg topically on the ear, mice, 6 hours
Experimental: as §1, §2

5α reductase = target: T1, 5α reductase (Homo sapiens, UniProt P18405); test: Inhibition of 5α reductase in DU145 cells; format: cell-based
T1 construct: carried out on cells of the human prostate-cancer cell-line DU145; endogenous in cells; host or cells: DU145 (human prostate cancer cell line)
T1 sequence (P18405 1-259): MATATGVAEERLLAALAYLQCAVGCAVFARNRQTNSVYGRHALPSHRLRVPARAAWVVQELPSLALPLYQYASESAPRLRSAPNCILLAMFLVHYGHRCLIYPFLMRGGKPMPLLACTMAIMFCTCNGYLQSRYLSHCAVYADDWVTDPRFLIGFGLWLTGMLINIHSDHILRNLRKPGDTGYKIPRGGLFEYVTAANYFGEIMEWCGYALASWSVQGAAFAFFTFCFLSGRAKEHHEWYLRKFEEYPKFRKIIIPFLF

[3] = tested on: human keratinocytes (HaCaT cells); test: Proliferation of human keratinocytes, 3H methyl-thymidine incorporation; format: cell-based; conditions: for inhibition at 10 µg/mL: Homo sapiens, HaCaT, read-out: Inhibition (proliferation of HaCaT cells)
Experimental: The effects of the extracts according to the invention and various ingredients on the proliferation of human keratinocytes were obtained by using the HaCaT cell-line. The cells (10,000–15,000) were disseminated in 200 μl DMEM with 5% foetal calf serum in 96-well F-form micro-titre dishes and incubated at 37° C. at absence of test substances in an incubator. Cell proliferation was determined by measuring the incorporation of ^3H methyl-thymidine (0.5 μCi/well) over the last 6 hours in the culture.

DU145 cells = conditions: some 30 μg/ml
Experimental: Investigations of 5a reductase inhibition were carried out on cells of the human prostate-cancer cell-line DU145. The cells (250,000) were disseminated in 5 ml of RPMI 1640 medium with 10% foetal calf serum (FCS) in 6-well cell-culture dishes and incubated at 37° C. in an incubator. After four days, the medium against RPMI 1640 was replaced, with the addition of 10% charcoal-stripped FCS. On the following day, the test substances and ^14C testosterone were applied and another 18 hours later, supernatant of the cells were removed. The supernatant of the cells were mixed with 2.5 ml ethyl acetate and then centrifuged for 10 mins with 500 g at room temperature. The organic phase was removed and transferred over to a small glass tube. Extraction was then repeated by again applying 2.5 ml ethyl acetate. The combined organic phases were evaporated down at 37° C. under N2 fumigation until dry; the residue was taken into 50 μl ethyl acetate and then separated out twice on a silica-gel 60 TLC dish, with ethyl acetate/cyclohexane (1:1) as mobile phase. The testosterone metabolites so formed were localised with the aid of a linear analyser, and inhibition of 5α reductase was obtained at the dihydro-testosterone peak by comparison with the solvent control.

Methicillin-resistant SA = format: cell-based, Staphylococcus aureus
Experimental: (§3) Anti-microbial effects against various gram-positive bacteria were determined using the micro-dilution method. In the table below, we show the minimum inhibition concentration (MIC) and the minimum bactericide concentration (MBC) in each case.

[4] = tested on: Staphylococcus saprophyticus; test: MIC, micro-dilution method; format: cell-based
Experimental: as §3

[5] = tested on: Staphylococcus aureus (SA); test: MIC, micro-dilution method; format: cell-based
Experimental: as §3

Enterococcus fæcium = test: MIC, micro-dilution method; format: cell-based
Experimental: as §3

Enterococcus fæcalis = test: MIC, micro-dilution method; format: cell-based
Experimental: as §3

Enterococcus durans = test: MIC, micro-dilution method; format: cell-based
Experimental: as §3

Streptococcus pyogenes = test: MIC, micro-dilution method; format: cell-based
Experimental: as §3

Listeria monocytogenes = test: MIC, micro-dilution method; format: cell-based
Experimental: as §3

verocells = test: Cyto-toxicity on verocells, MTT test; format: cell-based, ape; conditions: 7 days
Experimental: Various concentrations of the extract according to the invention and hypericin were incubated in the incubator for 7 days to assess the cyto-toxic effect of verocells. Determining of cyto-toxicity was performed using an MTT test following a published procedure (Cinatl J. jr; Cinatl, J; Rabenau, H, Gümel, H; Doerr, H. W; (1993); “In-vitro anti-human immuno-deficiency virus activity of 2′, 3 dideoxynucleotides and their effect on clonal growth of hæmopoietic cells from human bone-marrow”, Arzneimittel-Frsch./Drug Res. 43, 622–625).
Assessment of the cyto-toxic concentration (TC50) and the virus-inhibiting concentration (IC50) was performed using linear regression. To calculate the therapeutic index, the formula TC50/IC50 was applied.

[6] = tested on: Herpes simplex 1 strain of virus (HSV-1); test: HSV-1 "inhibition test" (virostatic action in verocells); format: cell-based; conditions: Human alphaherpesvirus 1; HSV-1 3000 TCID50/ml, 48–72 hours
[7] = tested on: Herpes simplex 1 strain of virus (HSV-1); test: HSV-1 "deactivation test" (virus titre on verocells); format: cell-based; conditions: for virus titre: virus applied 1.5×10^7 TCID50
[8] = DU-145, 30 μg/ml, DU145 cells, 18 hours, read-out: Inhibition of 5α reductase
[9] = DU-145, read-out: Inhibition of 5α reductase

`O=c1cc(-c2ccc(O)c(-c3c(O)cc(O)c4c(=O)cc(-c5ccc(O)cc5)oc34)c2)oc2cc(O)cc(O)c12` [Amento-flavone] gave an MPO inhibition [1] of 70%, an Oedema inhibition [2] of 82% and an inhibition at 30 µg/mL (5α reductase; [8]) of -15%. The inhibition at 10 µg/mL ([3]; 10 μg/ml) was 68%.
For `Oc1ccccc1O` [Catechol], the MPO inhibition [1] was 41%, the Oedema inhibition [2] was 36% and the inhibition at 30 µg/mL (5α reductase; [8]) was -15%. For the same compound, the inhibition at 10 µg/mL [3] was 14%.
Compound `O=C(/C=C/c1ccc(O)c(O)c1)O[C@@H]1C[C@](O)(C(=O)O)C[C@@H](O)[C@H]1O` [Chlorogenic acid] has an MPO inhibition [1] of 16%, an Oedema inhibition [2] of 14% and an inhibition at 30 µg/mL (5α reductase; [8]) of 3%. It also gave an inhibition at 10 µg/mL ([3]; 10 μg/ml) of -9%.
`Oc1cc(O)c2c(c1)O[C@H](c1ccc(O)c(O)c1)[C@H](O)C2` [Epicatechol] was tested, and the MPO inhibition [1] was 45%, the Oedema inhibition [2] was 1% and the inhibition at 30 µg/mL (5α reductase; [8]) was -6%. For the same compound, the inhibition at 10 µg/mL ([3]; 10 μg/ml) was 13%.
With `CC(C)=CCC[C@]1(C)[C@@H](CC=C(C)C)C[C@@]2(CC=C(C)C)C(=O)[C@]1(C(=O)C(C)C)C(=O)C(CC=C(C)C)=C2O` [Hyperforin] the cyto-toxicity (DU145 cells) was “cyto-toxic”, the MPO inhibition [1] was 62% and the Oedema inhibition [2] was 65%. It also gave an MIC (Methicillin-resistant SA) of 31.25 µg/mL (≈ 58.2 µM), an MIC [4] of 62.5 to 125 µg/mL and an MIC [5] of 62.5 µg/mL (≈ 116 µM). For the same compound, the MIC (Enterococcus fæcium) was 125 to 250 µg/mL, the MIC (Enterococcus fæcalis) was 125 µg/mL (≈ 233 µM) and the MIC (Enterococcus durans) was 125 µg/mL (≈ 233 µM). It also gave an MIC (Streptococcus pyogenes) of 15.6 µg/mL (≈ 29.1 µM) and an MIC (Listeria monocytogenes) of 15.6 to 31.25 µg/mL.
In the case of `Cc1cc(O)c2c(=O)c3c(O)cc(O)c4c5c(O)cc(O)c6c(=O)c7c(O)cc(C)c8c1c2c(c34)c(c78)c65` [Hypericin], the MPO inhibition [1] is reported as 48%, the TC50 (verocells) is reported as 74.3 µg/mL (≈ 147 µM) and the IC50 [6] is reported as 2.2 µg/mL (≈ 4.36 µM). For the same compound, the Oedema inhibition [2] was 6%, the inhibition at 30 µg/mL (5α reductase; [9]) was -24% and the virus titre ([7]; 10 μg/ml) was 4.7 × 10^6 TCID50. For the same compound, the virus-deactivating action ([7]; 100 μg/ml) was “approx. 4 log10 stages”, the virus titre ([7]; 100 μg/ml) was 4.7 × 10^3 TCID50 and the inhibition at 10 µg/mL ([3]; 10 μg/ml) was 100%.
With `O=c1c(O[C@@H]2O[C@H](CO)[C@H](O)[C@H](O)[C@H]2O)c(-c2ccc(O)c(O)c2)oc2cc(O)cc(O)c12` [Hyperoside] the MPO inhibition [1] was 39%, the Oedema inhibition [2] was −27% and the inhibition at 30 µg/mL (5α reductase; [8]) was -1%. For the same compound, the inhibition at 10 µg/mL ([3]; 10 μg/ml) was -8%.
`O=c1c(O[C@@H]2O[C@H](CO)[C@@H](O)[C@H](O)[C@H]2O)c(-c2ccc(O)c(O)c2)oc2cc(O)cc(O)c12` [Isoquercitrin] gave an MPO inhibition [1] of 73%, an Oedema inhibition [2] of −29% and an inhibition at 30 µg/mL (5α reductase; [8]) of -5%. For the same compound, the inhibition at 10 µg/mL ([3]; 10 μg/ml) was 83%.
With `O=c1cc(-c2ccc(O)c(O)c2)oc2cc(O)cc(O)c12` [Luteolin] the MPO inhibition [1] was 91%, the Oedema inhibition [2] was 70% and the inhibition at 30 µg/mL (5α reductase; [8]) was 42%. For the same compound, the inhibition at 10 µg/mL ([3]; 10 μg/ml) was 92%.
`O=c1c(O)c(-c2cc(O)c(O)c(O)c2)oc2cc(O)cc(O)c12` [Myricetin] showed an MPO inhibition [1] of 75%, an Oedema inhibition [2] of 17% and an inhibition at 30 µg/mL (5α reductase; [8]) of 29%. The inhibition at 10 µg/mL ([3]; 10 μg/ml) was 26%.
`O=c1c(O)c(-c2ccc(O)c(O)c2)oc2cc(O)cc(O)c12` [Quercetin] gave an MPO inhibition [1] of 97%, an Oedema inhibition [2] of 82% and an inhibition at 30 µg/mL (5α reductase; [8]) of 46%. For the same compound, the inhibition at 10 µg/mL ([3]; 10 μg/ml) was -29%.
Work on `C[C@@H]1O[C@@H](Oc2c(-c3ccc(O)c(O)c3)oc3cc(O)cc(O)c3c2=O)[C@H](O)[C@H](O)[C@H]1O` [Quercitrin] yielded an MPO inhibition [1] of 23%, an Oedema inhibition [2] of −26% and an inhibition at 30 µg/mL (5α reductase; [9]) of -29%. For the same compound, the inhibition at 10 µg/mL [3] was 35%.
`C[C@@H]1O[C@@H](OC[C@H]2O[C@@H](Oc3c(-c4ccc(O)c(O)c4)oc4cc(O)cc(O)c4c3=O)[C@H](O)[C@@H](O)[C@@H]2O)[C@H](O)[C@H](O)[C@H]1O` [Rutin] showed an MPO inhibition [1] of 55%, an Oedema inhibition [2] of 38% and an inhibition at 30 µg/mL (5α reductase; [8]) of -6%. For the same compound, the inhibition at 10 µg/mL ([3]; 10 μg/ml) was 9%.
With Camphor oil the MPO inhibition [1] was 96%, the Oedema inhibition [2] was 91% and the “Inhibition of 5α reductase” value (5α reductase; 30 μg/ml, DU145 cells, 18 hours) was 12%. For the same compound, the “Inhibition (proliferation of HaCaT cells)” value ([3]; 10 μg/ml) was 44%.
With Hyperforin Na the “Inhibition of 5α reductase” value (5α reductase; 5 μg/ml, DU145 cells, 18 hours) was 10% and the “Inhibition (proliferation of HaCaT cells)” value ([3]; 10 μg/ml) was 97%.
